The text below walks through data of US20070270436A1, “NOVEL AMINO- AND IMINO-ALKYLPIPERAZINES” (Recordati Ireland Limited, priority 2006, published 2007).

Where two headings read alike, the source gives them in different places.

Test [1] concerns the target T1, human cloned 5-HT1A receptors (Homo sapiens, UniProt P08908).
T1 construct: expressed in transfected cells; host or cells: HeLa (human), stably transfected; membranes
T1 sequence (P08908 1-422): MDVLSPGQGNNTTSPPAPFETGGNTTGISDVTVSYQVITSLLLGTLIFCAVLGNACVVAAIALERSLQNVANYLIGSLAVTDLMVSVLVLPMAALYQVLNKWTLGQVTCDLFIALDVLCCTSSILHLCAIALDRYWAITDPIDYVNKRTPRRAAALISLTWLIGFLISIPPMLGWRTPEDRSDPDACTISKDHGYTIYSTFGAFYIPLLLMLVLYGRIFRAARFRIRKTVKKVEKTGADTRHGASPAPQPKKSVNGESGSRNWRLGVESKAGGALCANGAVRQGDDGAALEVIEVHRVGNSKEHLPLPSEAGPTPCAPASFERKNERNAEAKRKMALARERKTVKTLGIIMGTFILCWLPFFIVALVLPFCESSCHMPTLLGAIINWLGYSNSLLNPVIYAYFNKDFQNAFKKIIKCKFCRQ
Put plainly: [35S]GTPγS binding, functional activity. In kind it is biochemical. Details: key: neutral antagonists (NA); inverse agonists (IA). As to conditions: HeLa membranes with human 5-HT1A. Here is the method:
On the date of the experiment, cell membranes from HeLa cells transfected with human cloned 5-HT1A receptors were resuspended in buffer pH 7.4 containing 20 mM HEPES, 3 mM MgCl2 and 120 mM NaCl (Stanton, J. A.; Beer, M. S. Eur. J. Pharmacol. 320, 267-275, 1997). The membranes were incubated with 10 μM GDP and decreasing concentrations of test drugs (from 100 μM to 0.1 nM) or decreasing concentrations of 5-HT (from 100 μM to 0.1 nM, reference curve) for 20 min at 30° C. in a final volume of about 0.25 ml. [^35S]GTPγS (200-250 pM in 10 μl) was added to samples and incubated for a further 30 min at 30° C. Non-specific binding was determined in the presence of 10 μM GTPγS. The incubation was stopped by addition of ice-cold HEPES buffer and rapid filtration on Unifilter GF/C filters, using a Filtermate cell harvester (Packard). The filters were washed four times with total 1.2 ml of same buffer. Radioactivity was counted by liquid scintillation spectrometry with efficiency >90% (TopCount Packard). Stimulation of [^35S]GTPγS binding induced by the compounds tested was expressed as % increase in binding above basal value, being the maximal stimulation observed with 5-HT taken as 100%. The concentration-response curve of the agonistic activity was analyzed by non linear fitting program (De Lean et al., Am. J. Physiol. 235, E97-E102, 1978).
A stimulation of [^35S]GTPγS binding represented the functional correlate of the binding of an agonist compound at the 5-HT1A receptors. Stimulation induced by the endogenous ligand 5-HT was considered the maximal stimulation attainable. Compounds stimulating [^35S]GTPγS binding at a lower level were considered as partial agonists. […] Compounds that reduced [^35S]GTPγS binding were considered as inverse agonists.
(Binding of GTPγS marks nucleotide exchange on a G protein.)

The target in the next test is T2, 5-HT1A receptors (Rattus norvegicus, UniProt P19327).
T2 construct: from tissue; host or cells: living male Sprague-Dawley rats (whole animal, behavioural read-out)
T2 sequence (P19327 1-422): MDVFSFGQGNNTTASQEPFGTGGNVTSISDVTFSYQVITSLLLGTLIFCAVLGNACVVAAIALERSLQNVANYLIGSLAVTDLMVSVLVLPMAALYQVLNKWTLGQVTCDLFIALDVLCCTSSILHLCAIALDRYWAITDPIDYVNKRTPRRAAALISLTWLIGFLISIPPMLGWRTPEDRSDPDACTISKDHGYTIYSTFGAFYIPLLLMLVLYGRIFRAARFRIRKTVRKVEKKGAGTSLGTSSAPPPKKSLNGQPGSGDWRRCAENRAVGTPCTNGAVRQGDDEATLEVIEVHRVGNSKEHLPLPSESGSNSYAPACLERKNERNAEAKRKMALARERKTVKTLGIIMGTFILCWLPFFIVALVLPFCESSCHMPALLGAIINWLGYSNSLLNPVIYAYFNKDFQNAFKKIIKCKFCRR
Put plainly: Inhibition of serotonergic syndrome (forepaw treading) induced by 8-OH-DPAT in rats (post-synaptic antagonism). It counts as in vivo. As to conditions: rat, 10 mg/kg p.o. The protocol: The inhibitory effect of 5-HT1A-receptor antagonists on stereotyped forepaw treading induced in rats by subcutaneous injection of 8-OH-DPAT was evaluated by the method of Tricklebank (Tricklebank et al., Eur. J. Pharmacol., 117: 15, 1985) with minor modifications as described below.
Male Sprague-Dawley rats [Crl: CD® (SD) IGS BR] weighing 150-175 g from Charles River Italia were used. The animals were housed with free access to food and water and maintained on a forced 12-hour-light/12-hour-dark cycle at 22-24° C. of temperature. On the day of the experiment, the rats were placed singly in clear plastic containers, 10-15 minutes before oral administration of the vehicle or compounds to be tested. For evaluation of antagonistic activity, the compounds were administered 1 and 4 hours before induction of stereotypy by 8-OH-DPAT (1 mg/kg subcutaneously). Observation sessions lasted 30 seconds and began 3 minutes after 8-OH-DPAT treatment and were repeated every 3 minutes over a period of 15 minutes.
The appearance of the symptoms induced by postsynaptic stimulation of 5-HT1A receptors was noted, and the intensity was scored using an intensity scale in which: 0=absent, 1=equivocal, 2=present and 3=intense. Behavioural scores for treated rats were accumulated throughout the observation time (5 observation periods) and expressed as mean values of 4 rats/dose. Change in mean values of treated animals in comparison with control (vehicle) group, expressed as per-cent inhibition, was used to quantify the antagonistic activity.
In order to quantitate the potency of the compound of Example 24 in inhibiting the stereotypy (forepaw treading) induced by 8-OH-DPAT, an ED50 value (dose inhibiting by 50% the forepaw treading) was evaluated by means of linear regression using the least square method.

For test [2], the target named is T3, human 5HT1A-serotonergic receptor (Homo sapiens, UniProt P08908).
T3 construct: expressed in transfected cells; host or cells: HeLa (human), stably transfected; membranes
T3 sequence (P08908 1-422): T1 sequence (P08908 1-422)
Put plainly: Radioligand binding to recombinant 5-HT1A receptor ([3H]8-OH-DPAT, HeLa cell membranes). As to conditions: 1 nM [3H]8-OH-DPAT; Ki from IC50 by the Cheng equation; read-out: Ki (nM), binding affinity for 5HT1A receptor. The essentials:
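Membranes from HeLa cells stably expressing human 5-HT1A incubated 30 min at 30 °C with 1 nM [3H]8-OH-DPAT in 50 mM Tris pH 7.4, 2.5 mM MgCl2, 10 μM pargyline; non-specific binding with 10 μM 5-HT. Filtration read-out; IC50 by curve fitting, converted to Ki via Cheng-Prusoff.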

The next test relates to urinary bladder. Put plainly: Cystometric parameters in conscious rats after oral administration. It counts as in vivo, rat. As to conditions: 3 mg/kg p.o., 1-5 h after treatment. The protocol: Male Sprague-Dawley rats [Crl: CD® (SD) IGS BR] of 300-400 g body weight supplied by Charles River Italia were used. The animals were housed with free access to food and water and maintained on a forced 12-hour-light/12-hour-dark cycle at 22-24° C. of temperature, except during the experiment. To quantify urodynamic parameters in conscious rats, cystometrographic studies were performed according to the procedure previously reported (Guarneri et al., Pharmacol. Res. 24: 175, 1991).
Briefly, the rats were anaesthetised by intraperitoneal administration of 3 ml/kg of Equithensin solution (pentobarbital 30 mg/kg and chloral hydrate 125 mg/kg) and placed in a supine position. An approximately 10 mm-long midline incision was made in the shaved and cleaned abdominal wall. The urinary bladder was gently freed from adhering tissues, emptied and then cannulated via an incision in the bladder body, using a polyethylene cannula (0.58-mm internal diameter, 0.96-mm external diameter) which was permanently sutured with silk thread. The cannula was exteriorised through a subcutaneous tunnel in the retroscapular area, where it was connected to a plastic adapter in order to avoid the risk of removal by the animal. For drug testing, the rats were utilised one day after implantation.
On the day of the experiment, the rats were placed in modified Bollman cages, i.e., restraining cages that were large enough to permit the rats to adopt a normal crouched posture, but narrow enough to prevent turning around. After a stabilisation period of about 20 minutes, the free tip of the bladder cannula was connected through a T-shaped tube to a pressure transducer (Statham P23XL) and to a peristaltic pump (Gilson minipuls 2) for continues infusion of a warm (37° C.) saline solution into the urinary bladder, at a constant rate of 0.1 ml/minute. The intraluminal-pressure signal during infusion of saline into the bladder was continuously recorded on a polygraph (Rectigraph-8K San-ei with BM614/2 amplifier from Biomedica Mangoni). The cystometrogram was used to evaluate the urodynamic parameters of bladder volume capacity (BVC) and micturition pressure (MP). BVC (ml) is defined as the volume of saline infused into the bladder necessary to induce detrusor contraction followed by micturition. MP (mmHg) is defined as the maximal intravesical pressure caused by contraction during micturition. Basal BVC and MP values were evaluated as mean of the values observed in the cystometrograms recorded in an initial period of 30-60 minutes. Following determination of basal BVC and MP, the infusion was interrupted and the test compounds were administered orally by a stomach tube. Bladder infusion was resumed and changes in BVC and MP were evaluated from the mean values obtained in the cystometrograms observed during 1, 2, 3, 4 and 5 hours after treatment. Compounds were administered in a volume of 2 ml/kg and groups of control animals received the same amount of vehicle (0.5% methocel in water) orally.
Data were expressed as mean ±standard error. The percent changes of BVC and MP versus the basal values, as well as Δ values (difference in ml or mmHg) of BVC and MP (BVC or MP at time “x” minus basal value), were also evaluated for each rat/time. In the figures, data were reported as % changes versus basal values.
Statistical analysis on BVC and MP values, as well as on Δ values, was performed by S.A.S./STAT software, version 6.12. The observed differences between vehicle (control) and test treatments were evaluated on Δ values of BVC and MP, whereas the differences between the values at different times versus basal values were analyzed on original BVC and MP data.

Test [3] deals with rhythmic bladder-voiding contractions. Kind of test: Rhythmic bladder-voiding contractions induced by bladder filling in anaesthetised rats. It counts as in vivo, rat. Conditions: for ED50: Rattus norvegicus. The protocol: Female Sprague-Dawley rats weighing 225-275 g (Crl: CD® (SD) IGS BR, Charles River Italia) were used. The animals were housed with free access to food and water and maintained on a forced 12-hour alternating light-dark cycle at 22-24° C. for at least one week, except during the experiment. The activity on rhythmic bladder voiding contractions was evaluated according to the method of Dray (Dray J., Pharmacol. Methods, 13:157, 1985), with some modifications as in Guarneri (Guarneri, Pharmacol. Res. 27:173, 1993). Briefly, the rats were anaesthetised by subcutaneous injection of 1.25 g/kg (5 ml/kg) urethane, after which the urinary bladder was catheterised via the urethra using PE 50 polyethylene tubing filled with physiological saline. The catheter was tied in place with a ligature around the external urethral orifice and was connected to conventional pressure transducers (Statham P23 ID/P23 XL). […] The bladder was then filled via the recording catheter by incremental volumes of warm (37° C.) saline until reflex bladder-voiding contractions occurred (usually 0.8-1.5 ml). For intravenous injection of bioactive compounds, PE 50 polyethylene tubing filled with physiological saline was inserted into the jugular vein.
From the cystometrogram, the number of contractions recorded 15 minutes before (basal values) and after treatment, as well as the mean amplitude of these contractions (mean height of the peaks in mmHg), was evaluated.
Since most compounds produced an effect that was relatively rapid in onset and led to a complete cessation of bladder contractions, bioactivity was conveniently estimated by measuring the duration of bladder quiescence (i.e., the time during which no contractions occurred). The number of tested animals showing a reduction in the number of contractions higher than 30% of that observed in the basal period was recorded too.
The extrapolated doses which induced a reduction in the number of contractions greater than 30% in 50% of the treated rats (ED50) were also evaluated by the method of Bliss (Bliss C. I., Quart J. Pharm. Pharmacol. 11, 192-216, 1938).

The next test relates to primates. Conditions: cited from earlier work.

Usually inhibition stands for how much of the control response was suppressed. One may read the Ki as a measure of affinity in units of concentration, obtained from inhibition or displacement. For `COC(=O)N[C@H](C1CCCCC1)[C@@H](CCN1CCN(c2ccccc2OC)CC1)c1ccccc1F` (racemic) [Example 17, (RS,SR)-{1-Cyclohexyl-2-(2-fluorophenyl)-4-[4-(2-methoxyphenyl)-piperazin-1-yl]butyl}carbamic acid methyl ester], in test [1], the “Functional Activity” value is “IA”. The inhibition at 10 mg/kg on 5-HT1A receptors (1 h before 8-OH-DPAT 1 mg/kg s.c., read-out: % Inhibition of forepaw treading, 1 h) was determined as 75%; at 5-HT1A receptors (4 h before 8-OH-DPAT 1 mg/kg s.c., read-out: % Inhibition of forepaw treading, 4 h) it was 92%. Moreover, the Ki in test [2] was determined as 0.68 nM.
What is called ED50 is the midpoint of the dose-response relation. In the case of `CCN(CC)CC#CCOC(=O)C(O)(c1ccccc1)C1CCCCC1` (centres unmarked) [Oxybutynin, oxybutynin], in the test with urinary bladder, the “bladder volume capacity (BVC)” value was “slight, not-significant increase” and the “micturition pressure (MP)” value was “greatly reduced”. In test [3] (intravenous administration, n.a. = not active, no significant reduction of the height of the peaks, read-out: ED50 (amplitude) (extrapolated dose inducing a 30% reduction of amplitude of the contractions in 50% of treated rats)), the median effective dose (ED50) is 0.24 mg/kg. Moreover, in test [3] (intravenous administration, read-out: ED50 (frequency) (extrapolated dose inducing a reduction of the number of contractions >30% in 50% of treated rats)), the ED50 is above 10 mg/kg. In addition, the “frequency of bladder contractions” value in test [3] (at 240 μg/kg) is listed as “did not lower the frequency”. Further, the “ED10 min (extrapolated dose inducing 10 minutes of disappearance of the contractions)” value in test [3] (intravenous administration) was 7.77 mg/kg.
For `COc1ccccc1N1CCN(CCN(C(=O)C2CCCCC2)c2ccccn2)CC1` [WAY-100635], in the test with primates, the “cognitive deficits induced by glutamatergic and cholinergic dysfunction” value is reported as “can alleviate”.
